Results on 29 compounds are retold here after patent US4405642A, “Method for treatment or prophylaxis of cardiac disorders” (American Hospital Supply Corporation, priority 1980, dated 1983).

Counter-ions that a name gives are not always drawn.

Data set [1] has as its target T1, β-adrenergic receptors (guinea pig right atria) (Cavia porcellus, UniProt H0W3H1).
T1 construct: Atria were allowed to beat spontaneously under a loading tension; from tissue; host or cells: guinea pig right atria (isolated, spontaneously beating)
Briefly: β-blocking activity in vitro, guinea pig right atria (rate response to isoproterenol). The class given is cell-based. The note with it: vs isoproterenol, guinea pig right atria, 60 minute incubation, 37° C.; for Kb: read-out: pA2 Atria (converted). As for the experimental part: (§1) Each tissue was suspended between a fixed glass rod and a Statham® Universal Transducer connected to a Beckman® recorder. Atria were allowed to beat spontaneously under a loading tension of approximately 0.5 gm. Instrinsic depressant or stimulant activity was determined for each compound by progressively increasing concentrations in the tissue baths at 60-minute intervals. Tissues were not washed between increments. The maximum concentration showing little or no cardiodepressant activity was chosen for blockade experiments. Changes in rate in response to isoproterenol were measured in the absence and presence of test compounds. Spiral strips of guinea pig trachea were suspended under 5 gm resting tension and incubated with phentolamine, tropolone and cocaine. Active tension was generated by addition of carbachol (3.0×10^-7 M) and decreases in tension in response to isoproterenol were quantitated. Cumulative concentration-response curves were produced with isoproterenol both before and after 60 minute incubation of test compounds with atria and trachea. The blocking potency of test compounds was estimated by computing pA2 values (-log […]) by the method of Furchgott, The Pharmacological Differentiation of Adrenergic Receptors, Ann. […] The degree of cardioselectivity was estimated from the ratio, KB trachea/KB atria (10^(pA.sbsp.2^atria-pA.sbsp.2^trachea)). A ratio greater than one indicates cardioselectivity. Test drugs were dissolved in distilled water and added to the bath (30 ml) in a volume of 10 or 100 μl.

In data set [2] the test system is β-adrenergic receptors (guinea pig right atria). Described as above. The note with it: ratio from pA2 atria and trachea; greater than one indicates cardioselectivity. Format: cell-based. On the procedure: as §1
Data set [3] deals with heart rate response to isoproterenol. Briefly: Duration of beta-blockade in vivo, anesthetized dogs, 40-minute infusion. The conditions noted are these: for Recovery Times 50%: 50% recovery of heart rate after 40-minute infusion; for Recovery Times 50% / Recovery Times 80% / Recovery Times 100%: normalized to 50% inhibition, dog; for Recovery Times 80%: 80% recovery of heart rate after 40-minute infusion; for Recovery Times 100%: 100% recovery of heart rate after 40-minute infusion; for ED50: Canis lupus familiaris, iv, 40 min, read-out: Potency. The arrangement: species or system dog. As for the experimental part:
(§2) The duration of beta-blockade was determined in vivo using pentobarbitalanesthetized dogs instrumented for measurement of heart rate using a Beckman® cardiotachometer triggered electronically by a phasic aortic blood pressure signal. Both vagus nerves were severed in the cervical region and the animals were mechanically ventilated. Two experimental designs were used. The first employed a 40-minute infusion of test compound and the second used a 3-hour infusion of test compound. In the 40-minute model, isoproterenol was infused into a foreleg vein at the rate of 0.5 μg/kg/min to induce a beta-receptor mediated tachycardia. Various doses of test compound where then infused into a femoral vein over a period of 40 minutes. This infusion was then terminated and recovery from blockade was quantitated. […] This cumulative dose is expressed as mg/kg and is an indication of potency. The time period required for 80% recovery of heart rate for each dose of test drug was also measured to quantitate duration of action. […] Test compounds were dissolved in 0.9% NaCl and infused at a rate of 0.05 ml/kg/min or less. In the 3-hour infusion model, bolus doses of isoproterenol (0.5 μg/kg) were used to assess the degree of beta-blockade and recovery from beta-blockade after termination of the infusion. The doses were spaced at 10-minute intervals and were given before, during and following the infusion of test compounds. The infusion rate was adjusted so that at the end of the 3-hour infusion period the degree of isoproterenol inhibition averaged about 50% of control.

For data set [4], the target named is T2, β-adrenergic receptors (guinea pig tracheal strips) (Cavia porcellus, UniProt Q8K4Z4).
T2 construct: from tissue; host or cells: guinea pig trachea (isolated spiral strips)
Briefly: β-blocking activity in vitro, guinea pig tracheal strips (tension response to isoproterenol). The class given is cell-based. The note with it: vs isoproterenol, 60 minute incubation, 37° C., read-out: pA2 Trachea (converted). On the procedure:
as §1

The test system of data set [5] is heart rate response to isoproterenol. Briefly: Duration of beta-blockade in vivo, anesthetized dogs, 3-hour infusion. The conditions noted are these: dog; for 80% Recovery Time: after termination of 3-hour infusion; for % I (Percent inhibition of heart rate response to isoproterenol): end of 3-hour infusion, bolus isoproterenol 0.5 μg/kg. On the procedure: as §2
Data set [6] can be described thus: Disappearance in vitro in dog whole blood. Format: in vitro ADME. The conditions noted are these: 50 μg test compound, 37° C., read-out: T1/2 Dog Whole Blood. On the procedure:
(§3) The rate of disappearance of a compound is expressed as the half-life (T1/2), which is the time period in which one half of the initial amount of compound tested disappears. […] The samples were incubated in a Dubnoff shaking metabolic incubator for 2.5, 5.0, 10.0, 20.0, 30.0 and 60.0 minutes at 37° C. At the designated time periods, the test mixtures were removed from the incubator and transferred to a 0° C. ice bath. Acetonitrile (2 ml) was immediately added and the mixtures were mixed to stop enzymatic hydrolysis. Zero time samples were prepared by adding 2 ml. of acetonitrile to denature the proteins prior to addition of the test compounds. After centrifugation to sediment denatured proteins, 2 ml. of the supernatant was removed and analyzed by high pressure liquid chromatography, using a mobile phase of 60% acetonitrile/40% 0.05 m sodium phosphate buffer (pH 6.6), a U.V. detector and Waters® μ Bondapak Phenyl column. The half life of each test compound was determined graphically by plotting the decrease in concentration as a function of time.

Data set [7] in a line: Disappearance in vitro in human whole blood. The class given is in vitro ADME. The note with it: 50 μg test compound, 37° C., read-out: T1/2 Human Whole Blood. On the procedure:
as §3

T1 sequence (H0W3H1 1-470): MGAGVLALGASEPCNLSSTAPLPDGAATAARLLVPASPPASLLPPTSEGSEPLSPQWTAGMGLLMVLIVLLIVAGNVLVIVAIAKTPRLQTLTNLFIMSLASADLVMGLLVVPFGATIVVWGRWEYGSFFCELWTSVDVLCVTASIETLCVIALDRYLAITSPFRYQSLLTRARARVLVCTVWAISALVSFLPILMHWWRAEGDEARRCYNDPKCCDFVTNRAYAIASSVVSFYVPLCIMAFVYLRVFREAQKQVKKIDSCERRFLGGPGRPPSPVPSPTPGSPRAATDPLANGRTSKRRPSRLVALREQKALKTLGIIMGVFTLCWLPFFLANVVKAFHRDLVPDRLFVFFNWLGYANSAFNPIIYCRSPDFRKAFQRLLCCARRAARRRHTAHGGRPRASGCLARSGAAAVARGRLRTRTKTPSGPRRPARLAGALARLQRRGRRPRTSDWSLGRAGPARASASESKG
T2 sequence (Q8K4Z4 whole entry): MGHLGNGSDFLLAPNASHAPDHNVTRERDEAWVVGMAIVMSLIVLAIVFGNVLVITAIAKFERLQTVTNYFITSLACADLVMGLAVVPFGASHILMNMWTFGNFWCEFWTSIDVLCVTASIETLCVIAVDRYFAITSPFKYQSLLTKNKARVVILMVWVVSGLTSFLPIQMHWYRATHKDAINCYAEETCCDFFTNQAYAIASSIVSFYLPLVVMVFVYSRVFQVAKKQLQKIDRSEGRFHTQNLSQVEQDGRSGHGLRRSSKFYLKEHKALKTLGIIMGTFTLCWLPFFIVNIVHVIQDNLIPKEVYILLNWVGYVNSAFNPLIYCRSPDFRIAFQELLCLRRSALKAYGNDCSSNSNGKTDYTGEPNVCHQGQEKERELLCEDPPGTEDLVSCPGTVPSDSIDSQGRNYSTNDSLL

In the case of `COc1ccc(CCNCC(O)C(=O)Oc2ccccc2)cc1OC` (centres unmarked) [Example I, N-(3,4-Dimethoxyphenethyl)-N-[(2-hydroxy-2-phenoxycarbonyl)ethyl-]amine Hydrochloride], the Kb in data set [1] is 1260 nM. Besides, the “Cardioselectivity KB (Trachea)/KB (Atria)” value (“Cardioselectivity KB” for short) in data set [2] was determined as 1. Further, in data set [3], the “Recovery Times 50%” value was determined as 6 ± 1 min, the “Recovery Times 80%” value was 11 ± 1 min, the “Recovery Times 100%” value worked out at 16 ± 2 min and the ED50 stood at 3.5 ± 0.5 mg/kg. Further, in data set [4], the Kb is 1260 nM.
`COc1ccc(CCNCC(O)COC(=O)c2cccc(C)c2)cc1OC` (centres unmarked) [Example IX]: in data set [3], the “Recovery Times 50%” value stood at 6 ± 1 min, the “Recovery Times 80%” value is 10 ± 1 min, the “Recovery Times 100%” value stood at 16 ± 2 min and the ED50 came out at 4.7 ± 1.7 mg/kg.
On to `CC(C)NCC(O)COC(=O)c1ccc(N)cc1` (centres unmarked) [Example LIV, [2-Hydroxy-3-(isopropylamino)]propyl 4-aminobenzoate hydrochloride], for which, in data set [5], the “80% Recovery Time” value is more than 60 min and the “% I (Percent inhibition of heart rate response to isoproterenol)” value is reported as 80 ± 4%.
On to `CC(C)NCC(O)COC(=O)c1cccc(N)c1` (centres unmarked) [Example LV], for which the Kb was 398 nM in data set [1] and 158 nM in data set [4].
For `CC(=O)Nc1ccc(C(=O)OCC(O)CNC(C)C)cc1` (centres unmarked) [Example LXII, [2-Hydroxy-3-(isopropylamino)]propyl 4-(acetamido)benzoate hydrochloride], the Kb in data set [1] was 1580 nM; in data set [4] it was 6310 nM. Also, in data set [2], the “Cardioselectivity KB” value came to 4.
Regarding `CC(C)NCC(O)COC(=O)c1ccc(CO)cc1` (centres unmarked) [Example LXIV, [2-Hydroxy-3(isopropylamino)]propyl 4-(hydroxymethyl)benzoate hydrochloride], the Kb in data set [4] is 501 nM.
Consider `COc1ccccc1COC(=O)C(O)CNCCc1ccc(OC)c(OC)c1` (centres unmarked) [Example V, 2-Methoxybenzyl 3-[[N-(3,4-Dimethoxyphenethyl)]amino]-2-hydroxypropionate], for which the “pA2 Atria” value in data set [1] was “inactive”. Besides, the Potency result in data set [3] (cumulative dose over 40-minute infusion, normalized to 50% inhibition of isoproterenol response, dog i.v.) was “low”. In data set [4], the Kb is 10000 nM.
For `Cc1cccc(C(=O)OCC(O)CNC(C)C)c1` (centres unmarked) [Example VIII], the Kb in data set [1] is 158 nM. In data set [3], the “Recovery Times 50%” value is 7 ± 1 min, the “Recovery Times 80%” value worked out at 14 ± 3 min, the “Recovery Times 100%” value stood at 20 ± 4 min and the ED50 is 1.83 ± 0.11 mg/kg. Moreover, the Kb in data set [4] is 50.1 nM.
Regarding `CC(C)NCC(O)COC(=O)c1cccc([N+](=O)[O-])c1` (centres unmarked) [Example XXI], the Kb in data set [1] is 158 nM; in data set [4] it was 63.1 nM.
As to `CC(C)NCC(O)COC(=O)c1ccc(F)cc1` (centres unmarked) [Example XX], the Kb was 251 nM in data set [1] and 50.1 nM in data set [4]. The half-life in data set [6] is 4 min; in data set [7] it was 3.5 ± 0.9 min.
Turning to `COc1ccc(CCNCC(O)C(=O)Oc2ccccc2C)cc1OC` (centres unmarked) [II], the Kb in data set [1] is 1260 nM.
The same measure, in the same setting: the value for `CCC(C)(C)NCC(O)COC(=O)c1ccccc1F` (centres unmarked) [LIII] was 158 nM.
As for `CC(C)NCC(O)COC(=O)c1ccc(O)cc1` (centres unmarked) [LVI], the values for the Kb in data set [1] and in data set [4] were 158 nM and 63.1 nM, respectively. In addition, the “% I (Percent inhibition of heart rate response to isoproterenol)” value in data set [5] worked out at 79 ± 9%.
For the compound `CCCNCC(O)COC(=O)c1ccc(N)cc1` (centres unmarked) [LXV, [2-Hydroxy-3-(n-propyl)amino]propyl 4-aminobenzoate oxalate], the Kb in data set [1] was 1260 nM.
Same read-out and setting: with `COc1ccc(CCNCC(O)COC(=O)c2ccc(CO)cc2)cc1OC` (centres unmarked) [LXVI, [2-Hydroxy-3-[(N3,4-dimethoxyphenethyl)amino]propyl 4-(hydroxymethyl) benzoate oxalate] the figure was more than 3160 nM.
As for `CC(C)NCC(O)COc1cccc2ccccc12` (centres unmarked) [Propranolol, reference compound], in data set [5], the “80% Recovery Time” value is recorded as more than 60 min. In addition, in data set [3], the “Recovery Times 50%” value was determined as 23 ± 4 min, the “Recovery Times 80%” value was 42 ± 8 min and the “Recovery Times 100%” value was determined as 58 ± 9 min.
`CC(C)NCC(O)COC(=O)c1cccc(F)c1` (centres unmarked) [XIX]: the half-life in data set [6] worked out at 50 min; in data set [7], 8 ± 4 min. The Kb in data set [4] was 100 nM.
As to `Cc1cccc(C(=O)OCC(O)CNC(C)(C)C)c1` (centres unmarked) [XLII], the half-life in data set [6] came out at 150 min; in data set [7] it was 5.5 ± 2.6 min.
The corresponding values for `Cc1ccccc1C(=O)OCC(O)CNC(C)(C)C` (centres unmarked) [XLI] are more than 180 min and more than 180 min.
The corresponding values for `CC(C)(C)NCC(O)COC(=O)c1ccc(F)cc1` (centres unmarked) [XL] are 13 min and 11 ± 5 min.
In the case of `CC(C)NCC(O)COC(=O)c1ccccc1F` (centres unmarked) [XVIII], in data set [5], the “80% Recovery Time” value is 25 ± 9 min and the “% I (Percent inhibition of heart rate response to isoproterenol)” value turned out to be 46 ± 5%. For the same compound, the half-life in data set [6] turned out to be 7 min. For the same compound, in data set [3], the “Recovery Times 80%” value is 8 ± 1 min and the ED50 turned out to be 1.5 mg/kg. For the same compound, the Kb in data set [4] was 79.4 nM. Moreover, the half-life in data set [7] came to 1.7 ± 0.6 min.
Consider `CC(C)NCC(O)COC(=O)c1ccc2ccccc2c1` (centres unmarked) [XVI], for which the values for the Kb in data set [1] and in data set [4] were 398 nM and 251 nM, respectively.
On to `CC(C)NCC(O)COC(=O)c1cccc2ccccc12` (centres unmarked) [XV], for which, in data set [1], the Kb was 251 nM. For the same compound, in data set [5], the “80% Recovery Time” value was more than 60 min and the “% I (Percent inhibition of heart rate response to isoproterenol)” value was found to be 54%. In data set [3], the “Recovery Times 50%” value was 18 min, the “Recovery Times 80%” value was found to be 22 min, the “Recovery Times 100%” value was 38 min and the ED50 was determined as 1.5 mg/kg. Moreover, in data set [4], the Kb was 100 nM.
`CCCOc1ccccc1C(=O)OCC(O)CNC(C)C` (centres unmarked) [XXVII]: the Kb in data set [1] was 251 nM. Besides, in data set [5], the “80% Recovery Time” value is recorded as more than 60 min and the “% I (Percent inhibition of heart rate response to isoproterenol)” value is 69%.
With `COc1ccc(CCNCC(O)COC(=O)c2ccccc2F)cc1OC` (centres unmarked) [XXXIII], the Kb in data set [1] was 794 nM; in data set [4], 2000 nM. The “Cardioselectivity KB” value in data set [2] stood at 2.5.
The corresponding values for `COc1ccc(CCNCC(O)COC(=O)c2cccc(F)c2)cc1OC` (centres unmarked) [XXXIV] are 398 nM, 631 nM and 2.
In the case of `COc1ccc(CCNCC(O)COC(=O)c2ccccc2C)cc1OC` (centres unmarked) [XXXI], in data set [5], the “80% Recovery Time” value is on record as more than 60 min and the “% I (Percent inhibition of heart rate response to isoproterenol)” value amounted to 85%.
For `CC(C)(C)NCC(O)COC(=O)c1ccccc1` (centres unmarked) [XXXVII], the results for the Kb in data set [1] and in data set [4] were 158 nM and 20 nM, respectively. In data set [5], the “80% Recovery Time” value was more than 60 min. The “% I (Percent inhibition of heart rate response to isoproterenol)” value in data set [5] is 64 ± 5%. In addition, the half-life in data set [6] was found to be 5.5 min; in data set [7] it was 5.3 ± 1 min.
For `CC(C)NCC(O)COC(=O)c1ccc(OCc2ccccc2)cc1` (centres unmarked) [XXX], the Kb in data set [1] was more than 1000 nM.
